Data reported in ChEMBL document CHEMBL1147224, “Resveratrol and two monomethylated stilbenes from Israeli Rumex bucephalophorus and their antioxidant potential” (J Nat Prod, 2003).

Test: ABTS radical scavenging activity assessed as trolox equivalent antioxidant capacity after 10 mins; call rule not given here
Type: physicochemical

Row | SMILES | Activity
1 | COc1cc(O)cc(/C=C/c2ccc(O)cc2)c1 | Active
2 | COc1ccc(/C=C/c2cc(O)cc(O)c2)cc1 [RESVERATROL 4'-METHYL ETHER] | Active
3 | Oc1ccc(/C=C/c2cc(O)cc(O)c2)cc1 [RESVERATROL] | 2.74
